According to patent US20220170930A1, “METHOD FOR SCREENING COMPOUND FOR TREATING OR PREVENTING POLYQ-RELATED NEURODEGENERATIVE DISEASES” (FUDAN UNIVERSITY, priority 2019, published 2022):

Key:
Q25-GFP = experiment: OI-RD affinity screening with Q25-GFP; format: binding; settings: OI-RD difference images
Text: (§1) (1) PolyQ-GFP cDNA sequence (expressing Met-polyQ-GFP, wherein polyQ was Q72 or Q25) was synthesized de novo and subcloned into pcDNA vector. […] And the same method was used to obtain cells expressing Q53-GFP, cells expressing Q46-GFP, and cells expressing Q38-GFP.

LC3B [1] = biological target: T1, LC3B (Homo sapiens, UniProt Q9GZQ8); experiment: OI-RD affinity with LC3B; format: binding
T1 construct: His8 (N, cleaved yes); GST (from pGEX-6P1) (N, cleaved yes); made in house; host or cells: E. coli BL21(DE3)pLsyS
Protocol: 01-RD images before and after incubation with the target protein was obtained following the method in (1).
(§2) The difference images of the above steps (1), (2), (3) (the image after incubation minus the image before incubation) was analyzed respectively.
Each compound was printed in triplicates on the microarray. 01-RD was used to measure the affinity reaction parameters of the compound with LC3B, full-length mHTT (flHTT-Q73) and full-length HTT-Q23 (flHTT-Q23).

MBP-ATXN3-Q28 = biological target: T2, MBP-ATXN3-Q28 (Homo sapiens, UniProt P54252, INS305QQQQQQQQQQQQQQQQQQ); experiment: MST affinity with MBP-ATXN3-Q28; format: binding
T2 construct: His8 with TEV protease cleavage site; made in house; host or cells: Escherichia coli Rosetta(DE3)pLsyS
Protocol: Protein concentration was 500 nM.

[2] = system: polyQ-GFP (Q72-GFP, Q25-GFP); experiment: polyQ-GFP level in HEK293T cells by Incucyte fluorescence counting; format: cell-based; settings: Q72-GFP vs Q25-GFP expressing HEK293T cells, 100 nM compound 1, 100 nM compound 3 or 50 nM compound 4, 2 days
Text: (1) PolyQ-GFP cDNA sequence (expressing Met-polyQ-GFP, wherein polyQ was Q72 or Q25) was synthesized de novo and subcloned into pcDNA vector. It was transfected into HEK293T cells (ATCC, CRL-3216) through forward transfection to obtain Q72-GFP expressing cells and Q25-GFP expressing cells, respectively. And the same method was used to obtain cells expressing Q53-GFP, cells expressing Q46-GFP, and cells expressing Q38-GFP.
The Q72-GFP expressing cells and Q25-GFP expressing cells obtained in step (1) of 10.1 were used. […] Then the level of polyQ-GFP was measured by Incucyte fluorescence counting (FIG. 25).

HTTexon1-Q72-MBP = biological target: T3, HTTexon1-Q72-MBP (Homo sapiens, UniProt P42858, INS38QQQQQQQQQQQQQQQQQQQQQQQQQQQQQQQQQQQQQQQQQQQQQQQQQQQ); experiment: OI-RD affinity screening and affinity reaction parameters with HTTexon1-Q72; format: binding
T3 construct: made in house; host or cells: mammalian expression vector pTT5SH8Q2
Protocol: Each compound was printed in duplicate on the microarray. The compound not fixed on the surface of the chip was washed away. The chip was sealed and cleaned. 01-RD microscope was applied to scan the images. […] The chips are cleaned and scanned.
as §2
(§3) Each compound was printed in triplicates on the microarray. 01-RD was used to measure the affinity reaction parameters of compounds with HTTexon1-Q72 and HTTexon1-Q25.

His-ATXN1-Q92 = biological target: T4, His-ATXN1-Q92 (Homo sapiens, UniProt P54253, INS208QQQQQQQQQQQQQQQQQQQQQQQQQQQQQQQQQQQQQQQQQQQQQQQQQQQQQQQQQQQQQQQQQQQQQQQQQQQQQQQQ); experiment: OI-RD affinity screening with His-ATXN1-Q92; format: binding; settings: OI-RD difference images
T4 construct: made in house; host or cells: HEK293T cells (ATCC, CRL-3216)
Protocol: (1) PolyQ-ATXN1 cDNA (where polyQ is Q92) was synthesized de novo and subcloned into pcDNA vector. It transfected into HEK293T cells (ATCC, CRL-3216) to obtain cells expressing His-ATXN1-Q92 (SEQ ID NO: 3 with a His tag at the N-terminal).
(2) The His-ATXN1-Q92 expressed in (1) was purified to obtain ATXN1 with abnormally expanded polyQ.
To identify compound(s) that can bind to ATXN1 with abnormally expanded polyQ, screening was conducted using a method similar to step (1) of 1.1, except for that the target protein HTTexon1-Q72-MBP in step (1) of 1.1 was replaced with His-ATXN1-Q92.

[3] = biological target: T5, mutant ATXN3 protein (ATXN3-Q74) (Homo sapiens, UniProt P54252, G306R/INS305QQQQQQQQQQQQQQQQQQQQQQQQQQQQQQQQQQQQQQQQQQQQQQQQQQQQQQQQQQQQQQQQ/V212M); experiment: Western-blot mutant ATXN3 level in SCA3 patient fibroblasts; format: cell-based; settings: 100 nM (compound 4: 50 nM), 2 days
T5 construct: endogenous in cells; host or cells: SCA3 patient fibroblasts (Q74)
Protocol: Then the levels of mutant ATXN3 protein (ATXN3-Q74, SEQ ID NO: 2) and wild-type ATXN3 protein (ATXN3-Q27, SEQ ID NO: 7) were determined by Western-blots (FIG. 26). […] Therefore, the compound of the present invention can be used to treat SCA3.

HTTexon1-Q25-MBP = biological target: T6, HTTexon1-Q25-MBP (Homo sapiens, UniProt P42858, DUP35-38); experiment: OI-RD affinity with HTTexon1-Q25; format: binding
T6 construct: made in house; host or cells: mammalian expression vector pTT5SH8Q2
Protocol: OI-RD images before and after incubation with the target protein was obtained following the method in (1).
as §2, §3

mHTT [4] = experiment: Western-blot mHTT level in primary cultured cortical neurons; format: cell-based, mouse; settings: 2 days
Protocol: Primary cultured cortical neurons: The brains of Hdh^Q140/Q7 and Hdh^Q7/Q7 newborn mice (P0) were dissected, digested, dissociated, and cultured.
(1) The primary cultured Hdh^Q140/Q7 and Hdh^Q7/Q7 mouse cortical neuron cells were treated with the compound for 2 days.

LC3B [5] = biological target: T1, LC3B; experiment: MST affinity with LC3B; format: binding; settings: MST, LC3B, protein 500 nM; read-out: Kd
in vivo = settings: mouse, ip, 0.5 mg/kg
Protocol: Experimental method: The compound or control DMSO was diluted with 0.9% NaCl intravenous infusion solution to 0.05 μg/μL. One ip-injection (0.5 mg/kg) was conducted per day. After 14 days of injection, tissue extraction or behavioral experiment were conducted.

Q38-GFP = experiment: OI-RD affinity reaction parameters with Q38-GFP; format: binding
Text: as §1

mHTT [6] = biological target: T7, mHTT (Homo sapiens, UniProt P42858, INS38QQQQQQQQQQQQQQQQQQQQQQQQQQ); experiment: HTRF mHTT level in HD patient iPSC-derived neurons; format: cell-based; settings: iPSC-derived neurons (Q47)
T7 construct: endogenous in cells; host or cells: HD patient iPSC-derived neurons (Q47)
T7 sequence (P42858 other isoform, or with tags, fused parts or gaps with the stated changes): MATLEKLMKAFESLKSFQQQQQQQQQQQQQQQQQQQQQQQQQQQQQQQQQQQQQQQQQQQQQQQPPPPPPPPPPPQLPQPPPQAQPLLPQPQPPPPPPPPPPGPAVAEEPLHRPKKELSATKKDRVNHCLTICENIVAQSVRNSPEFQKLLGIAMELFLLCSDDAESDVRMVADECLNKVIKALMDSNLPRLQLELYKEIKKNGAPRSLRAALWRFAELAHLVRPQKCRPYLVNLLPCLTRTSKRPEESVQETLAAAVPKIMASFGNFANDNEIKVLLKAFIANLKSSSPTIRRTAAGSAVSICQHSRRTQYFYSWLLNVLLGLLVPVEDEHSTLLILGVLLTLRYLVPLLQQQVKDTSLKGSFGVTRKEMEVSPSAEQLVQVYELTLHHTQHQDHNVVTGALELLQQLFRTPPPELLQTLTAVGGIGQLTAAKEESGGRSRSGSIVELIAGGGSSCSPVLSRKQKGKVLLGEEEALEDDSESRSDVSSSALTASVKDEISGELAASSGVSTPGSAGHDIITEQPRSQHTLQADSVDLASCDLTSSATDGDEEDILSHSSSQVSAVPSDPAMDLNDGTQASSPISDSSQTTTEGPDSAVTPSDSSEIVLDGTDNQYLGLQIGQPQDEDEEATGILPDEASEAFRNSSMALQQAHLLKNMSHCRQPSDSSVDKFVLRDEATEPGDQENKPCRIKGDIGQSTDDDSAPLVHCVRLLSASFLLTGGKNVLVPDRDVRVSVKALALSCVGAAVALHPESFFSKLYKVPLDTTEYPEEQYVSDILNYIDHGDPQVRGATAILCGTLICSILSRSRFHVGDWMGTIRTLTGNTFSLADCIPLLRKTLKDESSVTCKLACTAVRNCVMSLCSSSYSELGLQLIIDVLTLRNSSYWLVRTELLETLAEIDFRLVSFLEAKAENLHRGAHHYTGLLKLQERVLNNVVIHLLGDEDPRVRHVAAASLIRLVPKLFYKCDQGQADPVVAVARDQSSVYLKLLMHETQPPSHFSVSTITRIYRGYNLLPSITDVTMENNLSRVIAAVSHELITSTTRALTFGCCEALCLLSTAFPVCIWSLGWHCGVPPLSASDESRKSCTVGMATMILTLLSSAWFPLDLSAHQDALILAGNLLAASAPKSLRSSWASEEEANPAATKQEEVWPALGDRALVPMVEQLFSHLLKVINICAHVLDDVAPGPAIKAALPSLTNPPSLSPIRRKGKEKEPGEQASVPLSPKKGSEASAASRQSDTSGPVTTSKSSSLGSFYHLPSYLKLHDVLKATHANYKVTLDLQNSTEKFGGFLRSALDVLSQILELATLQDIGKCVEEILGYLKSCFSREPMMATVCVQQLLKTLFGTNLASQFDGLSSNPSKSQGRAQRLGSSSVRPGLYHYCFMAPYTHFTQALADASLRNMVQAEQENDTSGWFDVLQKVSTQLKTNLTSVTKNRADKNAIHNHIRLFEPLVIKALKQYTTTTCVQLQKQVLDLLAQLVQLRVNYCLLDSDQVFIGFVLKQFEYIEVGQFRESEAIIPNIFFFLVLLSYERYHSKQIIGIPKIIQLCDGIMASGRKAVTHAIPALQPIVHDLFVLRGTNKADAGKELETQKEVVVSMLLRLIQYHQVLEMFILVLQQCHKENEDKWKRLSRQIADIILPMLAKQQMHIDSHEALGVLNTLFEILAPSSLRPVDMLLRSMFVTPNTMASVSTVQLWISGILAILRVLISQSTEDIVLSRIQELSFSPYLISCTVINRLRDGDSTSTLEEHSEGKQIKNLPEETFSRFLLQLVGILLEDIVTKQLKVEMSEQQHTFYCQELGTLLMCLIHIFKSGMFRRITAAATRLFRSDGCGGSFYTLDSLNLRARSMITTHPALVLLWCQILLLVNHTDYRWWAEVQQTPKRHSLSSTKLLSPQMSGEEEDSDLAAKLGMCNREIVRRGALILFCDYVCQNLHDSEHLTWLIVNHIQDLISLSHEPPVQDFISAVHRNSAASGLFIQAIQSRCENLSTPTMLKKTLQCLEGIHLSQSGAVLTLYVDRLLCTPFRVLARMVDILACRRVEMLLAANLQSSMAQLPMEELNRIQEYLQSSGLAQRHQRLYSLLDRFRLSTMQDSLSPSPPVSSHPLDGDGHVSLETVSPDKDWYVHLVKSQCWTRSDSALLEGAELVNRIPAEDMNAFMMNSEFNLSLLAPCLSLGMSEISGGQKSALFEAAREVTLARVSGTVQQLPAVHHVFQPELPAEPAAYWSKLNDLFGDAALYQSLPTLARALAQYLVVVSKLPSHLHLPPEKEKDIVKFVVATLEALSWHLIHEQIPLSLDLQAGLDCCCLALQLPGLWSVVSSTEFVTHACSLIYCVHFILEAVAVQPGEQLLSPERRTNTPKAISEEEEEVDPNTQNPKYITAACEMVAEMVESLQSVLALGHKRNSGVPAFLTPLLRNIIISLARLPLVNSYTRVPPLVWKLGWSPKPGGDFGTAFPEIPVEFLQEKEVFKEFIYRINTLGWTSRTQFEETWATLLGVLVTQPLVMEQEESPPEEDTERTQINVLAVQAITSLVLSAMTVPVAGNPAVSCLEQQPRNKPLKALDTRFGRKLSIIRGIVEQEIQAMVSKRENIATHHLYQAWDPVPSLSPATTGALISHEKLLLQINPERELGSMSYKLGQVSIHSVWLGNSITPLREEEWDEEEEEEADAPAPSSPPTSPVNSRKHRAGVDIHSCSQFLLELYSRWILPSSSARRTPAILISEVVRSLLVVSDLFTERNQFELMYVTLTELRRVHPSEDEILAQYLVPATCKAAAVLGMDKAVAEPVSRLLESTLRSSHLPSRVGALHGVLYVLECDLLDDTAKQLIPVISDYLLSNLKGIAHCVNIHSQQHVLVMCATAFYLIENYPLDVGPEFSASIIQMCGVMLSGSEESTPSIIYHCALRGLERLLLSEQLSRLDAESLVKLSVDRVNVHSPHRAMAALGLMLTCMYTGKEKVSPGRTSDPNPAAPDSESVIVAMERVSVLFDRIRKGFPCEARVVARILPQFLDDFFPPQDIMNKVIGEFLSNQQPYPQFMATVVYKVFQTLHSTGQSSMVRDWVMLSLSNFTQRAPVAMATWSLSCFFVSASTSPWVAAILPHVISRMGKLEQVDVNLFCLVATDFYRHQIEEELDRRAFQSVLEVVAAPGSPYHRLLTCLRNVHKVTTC

T3 sequence (P42858 with tags, fused parts or gaps, stated change not applied): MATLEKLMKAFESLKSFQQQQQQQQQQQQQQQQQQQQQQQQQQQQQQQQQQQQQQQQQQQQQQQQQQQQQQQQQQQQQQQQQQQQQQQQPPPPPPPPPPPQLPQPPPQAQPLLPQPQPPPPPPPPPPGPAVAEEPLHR
T4 sequence (P54253 with tags, fused parts or gaps with the stated changes): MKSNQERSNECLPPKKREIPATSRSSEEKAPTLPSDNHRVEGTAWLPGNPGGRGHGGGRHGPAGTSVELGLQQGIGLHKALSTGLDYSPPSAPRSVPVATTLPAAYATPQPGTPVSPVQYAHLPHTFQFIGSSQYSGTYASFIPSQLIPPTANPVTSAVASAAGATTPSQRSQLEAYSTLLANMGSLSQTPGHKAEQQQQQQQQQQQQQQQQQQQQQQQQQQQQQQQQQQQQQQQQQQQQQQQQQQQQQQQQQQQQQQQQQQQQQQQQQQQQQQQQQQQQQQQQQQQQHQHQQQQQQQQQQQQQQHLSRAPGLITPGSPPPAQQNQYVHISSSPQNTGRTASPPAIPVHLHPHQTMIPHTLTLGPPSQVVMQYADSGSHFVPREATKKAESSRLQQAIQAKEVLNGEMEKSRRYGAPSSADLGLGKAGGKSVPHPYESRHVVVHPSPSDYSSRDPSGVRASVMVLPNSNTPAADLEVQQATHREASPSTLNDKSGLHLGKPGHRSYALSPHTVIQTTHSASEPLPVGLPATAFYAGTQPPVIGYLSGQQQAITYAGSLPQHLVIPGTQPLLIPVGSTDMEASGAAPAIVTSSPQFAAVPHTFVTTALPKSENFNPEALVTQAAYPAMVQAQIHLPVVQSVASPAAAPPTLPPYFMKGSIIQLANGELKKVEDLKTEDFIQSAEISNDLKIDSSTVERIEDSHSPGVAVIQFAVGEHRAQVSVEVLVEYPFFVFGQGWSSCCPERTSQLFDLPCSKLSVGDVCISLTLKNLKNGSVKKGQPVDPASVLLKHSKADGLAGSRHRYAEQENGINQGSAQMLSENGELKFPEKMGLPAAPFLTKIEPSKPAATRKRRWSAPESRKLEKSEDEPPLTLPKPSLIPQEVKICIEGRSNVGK
T5 sequence (P54252 with tags, fused parts or gaps isoform P54252-1 with the stated changes): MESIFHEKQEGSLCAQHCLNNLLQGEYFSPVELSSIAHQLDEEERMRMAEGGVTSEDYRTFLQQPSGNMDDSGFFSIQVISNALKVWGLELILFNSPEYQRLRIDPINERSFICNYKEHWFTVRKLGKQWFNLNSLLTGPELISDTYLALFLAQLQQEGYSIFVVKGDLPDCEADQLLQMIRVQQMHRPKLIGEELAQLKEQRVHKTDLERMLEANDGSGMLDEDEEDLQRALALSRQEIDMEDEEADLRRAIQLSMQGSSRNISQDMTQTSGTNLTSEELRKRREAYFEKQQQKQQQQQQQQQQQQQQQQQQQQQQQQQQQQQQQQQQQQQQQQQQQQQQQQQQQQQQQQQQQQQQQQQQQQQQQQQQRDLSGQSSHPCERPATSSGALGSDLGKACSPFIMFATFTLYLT
T2 sequence (P54252 with tags, fused parts or gaps isoform P54252-4 with the stated changes): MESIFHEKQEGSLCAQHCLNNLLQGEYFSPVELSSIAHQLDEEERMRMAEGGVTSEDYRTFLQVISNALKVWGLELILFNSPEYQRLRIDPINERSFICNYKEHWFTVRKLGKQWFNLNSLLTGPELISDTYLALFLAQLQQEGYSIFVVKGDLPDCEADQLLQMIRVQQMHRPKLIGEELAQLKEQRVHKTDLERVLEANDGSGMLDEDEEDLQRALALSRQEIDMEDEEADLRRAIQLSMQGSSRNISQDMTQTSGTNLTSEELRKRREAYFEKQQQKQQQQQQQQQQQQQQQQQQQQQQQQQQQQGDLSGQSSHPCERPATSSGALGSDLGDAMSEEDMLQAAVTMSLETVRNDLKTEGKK
T6 sequence (P42858 with tags, fused parts or gaps DUP35-38): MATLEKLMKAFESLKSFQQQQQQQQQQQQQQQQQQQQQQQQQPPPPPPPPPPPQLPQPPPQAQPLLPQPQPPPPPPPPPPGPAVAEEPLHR

SMILES: O=C1Nc2ccc(I)cc2/C1=C/c1cc(Br)c(O)c(Br)c1 [compound 1, GW5074]
- binding to Q25-GFP (Q25-GFP): did not bind
- binding to LC3B (LC3B [1]; OI-RD difference images): can bind
- Koff (LC3B [1]; OI-RD, LC3B): 0.00029 s⁻¹
- Kon (LC3B [1]; OI-RD, LC3B): 3.72e-05 min/nM
- Kd (LC3B [1]; OI-RD, LC3B, read-out: Kd): 0.468 µM
- binding affinity with normal ATXN3 protein (MBP-ATXN3-Q28) (MBP-ATXN3-Q28): no binding affinity
- level of proteins containing expanded polyglutamine in cells (polyQ-GFP) [2]: can selectively reduce the level
- binding to HTTexon1-Q72 (HTTexon1-Q72-MBP; OI-RD difference images): can bind
- Koff (HTTexon1-Q72-MBP; OI-RD, HTTexon1-Q72): 0.000238 s⁻¹
- Kon (HTTexon1-Q72-MBP; OI-RD, HTTexon1-Q72): 9.07e-05 min/nM
- Kd (HTTexon1-Q72-MBP; OI-RD, HTTexon1-Q72, read-out: Kd): 0.158 µM
- binding to His-ATXN1-Q92 (His-ATXN1-Q92): can bind
- mutant ATXN3 protein level [3]: A decrease in mutant ATXN3 protein level was observed
- binding to HTTexon1-Q25 (HTTexon1-Q25-MBP): do not bind
- concentration range in which the effect of selectively reducing mHTT levels was observed (mHTT [4]): 30 to 300 nM
- preferred concentration for selectively reducing mHTT levels (mHTT [4]): 100 nM
- Kd (LC3B [5]): 4.76 µM
- concentration at 2 h (in vivo): 81 ng/g
- Kd (Q38-GFP): 1.92 µM
- Koff (Q38-GFP): 0.000338 s⁻¹
- Kon (Q38-GFP): 1.06e-05 min/nM
- mHTT levels (mHTT [6]; 2B7/MW1): Decreased mHTT levels were observed
- mHTT levels (mHTT [6]; presence of the autophagy inhibitor NH4Cl): this effect was not observed
